Here are results for 5 compounds from paper PMC12024814, “Ruthenium(II)–Arene Complexes with a 2,2′-Bipyridine Ligand as Anti-Aβ Agents” (Biomolecules, 2025).

One data set concerns the target T1, Aβ40 (Homo sapiens, UniProt P05067).
T1 construct: Lyophilized Aβ40 was monomerized following previous procedures; purchased GenScript
The experiment in a line: TEM imaging of DLS filtrates. It is filed as biochemical. The conditions noted are these: for Ranking TEM: scale 1 to 5 (1 = best, 5 = worst), qualitative. On the procedure: Samples for TEM were prepared using the DLS filtrates following their analysis. An aliquot (20 µL) was added directly to a copper-coated formvar/carbon 300 mesh grid with a 63 µm pore size (Ted Pella). After settling for 1 min, the solvent was wicked away, then the grid was stained using 2% uranyl acetate (20 µL). After standing for one minute, the solvent was wicked away, and the grid was washed using dH2O (20 µL), which stayed on the grid for one minute before being wicked away. The grids were stored at room temperature until analysis. TEM images were collected using a high-resolution JEOL JEM 2100F operating at 200 kV.
The final evaluative step in the Aβ40 aggregation assay was imaging the samples using transmission electron microscopy (TEM). The samples used in the preparation of the TEM grids were those of the DLS filtrates, thereby allowing for a direct comparison between experimental methods, ultimately resulting in the same sample being measured by three different instruments. […] In order to determine the impact of each complex on Aβ40, multiple images were taken from each prepared grid (Figure S21), thereby providing an accurate representation of the particles.

The test system of a further data set is C6 glioma cells. Briefly: MTT cell viability assay, C6 glioma cells. It is filed as cell-based, Rattus norvegicus. The conditions noted are these: for cell morphology versus DMSO-treated control (confocal microscopy): 20 µM; for Ranking Cytotoxicity: scale 1 to 5 (1 = best, 5 = worst), C6 glioma cells. On the procedure: Cultures of adherent Rattus norvegicus pheochromocytoma cells (PC-12; ATCC CRL-1721) and axenic Rattus norvegicus C6 glioma cells (ATTC CCL-107) were prepared as previously reported. The cells were cultured using Dulbecco’s Modified Eagle’s medium with low glucose, sodium pyruvate, and without phenol red or L-glutamine (DMEM REF:11054-020; GIBCO; Waltham, MA, USA) and supplemented with 1.5% (v/v) heat-inactivated fetal bovine serum (GIBCO; Waltham, MA, USA), 10% (v/v) sterile filtered horse serum (Sigma-Aldrich, St. Louis, MO, USA), and 4% sterile L-glutamine (Sigma-Aldrich; St. Louis, MO, USA). Medium supplemented with sera was referred to as “complete medium”, while non-supplemented medium was designated as “incomplete”.
For the viability assays, both cell types were grown to confluency before being trypsinized, resuspended in 1 mL of complete medium per confluent well of a 6-well plate, diluted ten-fold, and then counted with a Scepter 2.0 Handheld Automated Cell Counter (Millipore, Burlington, MA, USA) affixed with a 60 µm sensor. Cells were subsequently seeded (adding 100 µL per well, thus adding an average of 1.0 × 10^4 cells per well) into poly-L-lysine-coated flat-bottomed 96-wells using separate plates for each cell type. Stock solutions of the Ru complexes were prepared in DMSO, with an appropriate dilution using DMSO to the testing concentrations of 40, 20, 2, or 0.2 µM. In all cases, the final concentration of DMSO was 1% with cell incubations. Solutions of the Ru complexes or DMSO were introduced 24 h after cell plating and incubated a further 24 h unless otherwise indicated. Replicate wells (n = 4) were set up for each experimental variation. No cell controls were also set up, containing the Ru complex in DMSO additions, so that potential spectral signals could be blanked out for the spectrophotometric 3-[4,5-dimethylthiazol-2-yl]-2,5-diphenyltetrazoliumbromide (MTT) viability assay, as described below.
To assess the viability of the cells with and without Ru additions, cell viability tests were performed using an MTT assay following the procedure of Mosmann with the following variations: Before adding the MTT reagent (5 mg/mL water), 90 µL of the complete medium was removed from each well, and 90 µL of incomplete medium was added. Then, 10 µL of MTT reagent was added per well, gently mixed, and incubated at ambient temperature for one hour. The reactions were stopped by the addition of 100 µL per well of the stopping reagent (10% v/v Triton X-100, 1 mM HCl in isopropanol) to lyse the cells and dissolve the formed formazan crystals. The absorbance values were recorded using a Bio-Rad® Microplate Reader Benchmark at 595 nm. All MTT data were normalized to the DMSO controls by calculating the average percent of DMSO control with the following formula: average cell+Ru MTT−average (Ru blank MTT)/average control cell MTT−average (control blank MTT) × 100
Data were obtained from 4 replicates and reported as a percent of control cells.
A final step in the evaluation of the Ru complexes was completed using a standard MTT cell viability assay towards two neuronal cells lines. The cell lines used were glial cells, as these are the most abundant cell type within the brain [61], and chromaffin cells, which would provide an indication regarding stress response. Taken together, these would provide information regarding the overall biocompatibility of the Ru complexes.
(Tetrazolium assays rely on reduction of a dye to a coloured formazan, in cell work by metabolically active cells.)

The subject of data set [1] is pheochromocytoma cells (PC-12). The experiment in a line: MTT cell viability assay, PC-12 cells. It is filed as cell-based, Rattus norvegicus. The conditions noted are these: 24 h. The protocol:
Cultures of adherent Rattus norvegicus pheochromocytoma cells (PC-12; ATCC CRL-1721) and axenic Rattus norvegicus C6 glioma cells (ATTC CCL-107) were prepared as previously reported. The cells were cultured using Dulbecco’s Modified Eagle’s medium with low glucose, sodium pyruvate, and without phenol red or L-glutamine (DMEM REF:11054-020; GIBCO; Waltham, MA, USA) and supplemented with 1.5% (v/v) heat-inactivated fetal bovine serum (GIBCO; Waltham, MA, USA), 10% (v/v) sterile filtered horse serum (Sigma-Aldrich, St. Louis, MO, USA), and 4% sterile L-glutamine (Sigma-Aldrich; St. Louis, MO, USA). […]
For the viability assays, both cell types were grown to confluency before being trypsinized, resuspended in 1 mL of complete medium per confluent well of a 6-well plate, diluted ten-fold, and then counted with a Scepter 2.0 Handheld Automated Cell Counter (Millipore, Burlington, MA, USA) affixed with a 60 µm sensor. […]
To assess the viability of the cells with and without Ru additions, cell viability tests were performed using an MTT assay following the procedure of Mosmann with the following variations: Before adding the MTT reagent (5 mg/mL water), 90 µL of the complete medium was removed from each well, and 90 µL of incomplete medium was added. […] The absorbance values were recorded using a Bio-Rad® Microplate Reader Benchmark at 595 nm. […]

T1 sequence (P05067 672-711 limits assumed): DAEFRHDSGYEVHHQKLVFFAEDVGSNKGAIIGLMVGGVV

As to “[Ru(η^6-p-cymene)(4,4′-di-tert-butyl-2,2′-bipyridine)Cl]PF6 [RuBtB]”, on Aβ40, the “Ranking TEM” value is listed as 4. For the same compound, the “cell morphology versus DMSO-treated control (confocal microscopy)” value in the data set with C6 glioma cells (C6 cells, 24 h) is “severely reduced in numbers and cell shapes”. Moreover, the “toxicity (MTT)” value in the data set with C6 glioma cells (C6 cells, 20 and 40 µM, 24 h) is listed as “substantial toxicity”; in data set [1] (20 and 40 µM) it was “substantial toxicity”. In the data set on C6 glioma cells, the “Ranking Cytotoxicity” value came out at 5. Moreover, in data set [1] (tested 0.2–40 µM), the “IC50 (cell viability)” value is recorded as “below the concentrations evaluated”.
For the compound `Cc1ccc(C(C)C)cc1.F[P-](F)(F)(F)(F)F.[Cl-].[Ru+2].c1ccc(-c2ccccn2)nc1` [RuB, [Ru(η^6-p-cymene)(2,2′-bipyridine)Cl]PF6], the “Ranking TEM” value at Aβ40 is 2. In addition, the “Ranking Cytotoxicity” value in the data set with C6 glioma cells is recorded as 4.
In the same order, the values of `Cc1ccc(C(C)C)cc1.Cc1ccnc(-c2cc(C)ccn2)c1.F[P-](F)(F)(F)(F)F.[Cl-].[Ru+2]` [RuBMe, [Ru(η^6-p-cymene)(4,4′-dimethyl-2,2′-bipyridine)Cl]PF6] are 3 and 2.
Turning to “[Ru(η^6-p-cymene)(4,4′-diamino-2,2′-bipyridine)Cl]PF6 [RuBA]”, the “appearance of Aβ40 particles in TEM images” value at Aβ40 (DLS filtrates after 6 h co-incubation) is “most dispersed and least dense particles”. Also, the “Ranking TEM” value at Aβ40 is given as 1. For the same compound, in the data set with C6 glioma cells (C6 cells, 24 h), the “cell morphology versus DMSO-treated control (confocal microscopy)” value is on record as “virtually indistinguishable”. The “Ranking Cytotoxicity” value in the data set on C6 glioma cells was 1.
For “[Ru(η^6-p-cymene)(4,4′-dimethoxy-2,2′-bipyridine)Cl]PF6 [RuBMeO]”, the “Ranking TEM” value on Aβ40 came to 5. Also, the “Ranking Cytotoxicity” value in the data set with C6 glioma cells was determined as 3.
